Laboratory results published in US20230406865A1, “CRYSTAL FORM OF FREE BASE OF INHIBITOR CONTAINING BICYCLIC RING DERIVATIVE AND PREPARATION METHOD AND APPLICATION OF CRYSTAL FORM” (SHANGHAI HANSOH BIOMEDICAL CO., LTD., priority 2020, published 2023).
Converted amounts (≈) assume the structure as drawn. Where two headings read alike, the source gives them in different places. Values belong to the compound of their own block, whether it stands above or below them.

Assays:
KIF5B-RET = molecular target: T1, KIF5B-RET (Homo sapiens, UniProt P07949); test: HTRF kinase activity inhibition, KIF5B-RET; type: biochemical; settings: ATP at Km
T1 construct: purchased SignalChem R02-19FG-05; the other entry of the earlier key: KIF5B (P33176, Kinesin-1 heavy chain)
T1 sequence (P07949 with tags, fused parts or gaps): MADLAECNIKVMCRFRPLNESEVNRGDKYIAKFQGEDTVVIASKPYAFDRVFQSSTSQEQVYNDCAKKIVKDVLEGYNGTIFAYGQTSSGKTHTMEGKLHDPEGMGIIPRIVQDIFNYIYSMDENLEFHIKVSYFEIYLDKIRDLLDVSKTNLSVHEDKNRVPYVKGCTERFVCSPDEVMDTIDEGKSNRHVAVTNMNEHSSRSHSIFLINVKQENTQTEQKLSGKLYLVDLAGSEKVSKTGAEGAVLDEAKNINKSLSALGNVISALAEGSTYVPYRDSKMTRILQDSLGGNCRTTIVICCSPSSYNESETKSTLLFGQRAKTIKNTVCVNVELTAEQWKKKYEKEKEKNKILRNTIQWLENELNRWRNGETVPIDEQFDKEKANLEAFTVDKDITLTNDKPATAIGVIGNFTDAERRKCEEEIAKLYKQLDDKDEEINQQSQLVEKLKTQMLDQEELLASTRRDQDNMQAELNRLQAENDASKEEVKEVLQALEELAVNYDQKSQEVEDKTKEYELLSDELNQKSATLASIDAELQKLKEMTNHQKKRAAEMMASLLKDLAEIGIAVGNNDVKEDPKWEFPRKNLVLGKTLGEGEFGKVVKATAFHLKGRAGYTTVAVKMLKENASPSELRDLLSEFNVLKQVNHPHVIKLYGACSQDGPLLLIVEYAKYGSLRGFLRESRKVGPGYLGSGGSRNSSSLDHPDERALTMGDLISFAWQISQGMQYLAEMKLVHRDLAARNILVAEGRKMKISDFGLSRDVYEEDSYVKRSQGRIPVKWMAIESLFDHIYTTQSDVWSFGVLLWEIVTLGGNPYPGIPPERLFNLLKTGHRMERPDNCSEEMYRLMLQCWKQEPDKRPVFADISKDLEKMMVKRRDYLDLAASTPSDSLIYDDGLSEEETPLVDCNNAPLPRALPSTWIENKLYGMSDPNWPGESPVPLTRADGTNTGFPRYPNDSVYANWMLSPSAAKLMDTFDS
Text: (§1) 2.2 Experimental Reagents: • RET enzyme was purchased from Carna Company, and the article number was 08-159; • RET M918T enzyme was purchased from Carna Company, and the article number was 08-508; • KIF5B-RET was purchased from SignalChem Company, the article number was R02-19FG-05; • CCDC6-RET was purchased from SignalChem Company, the article number was R02-19BG-05; • RET V804M enzyme was purchased from Thermofisher Company, and the article number was PV6223; • RET V804L enzyme was purchased from Thermofisher Company, and the article number was PV4397; • HTRF KinEASE-TK kit was purchased from Cisbio Company, and the article number was 62TK0PEC; • ATP was purchased from Thermofisher Company, and the article number was PV3227; • 384-well plate was purchased from PerkinElmer Company, and the article number was 6007290.
(§2) In this experiment, a homogeneous time-resolved fluorescence (HTRF) method was used for the detection of compounds on RET kinase activity.

CCDC6-RET = molecular target: T2, CCDC6-RET (Homo sapiens, UniProt P07949); test: HTRF kinase activity inhibition, CCDC6-RET; type: biochemical; settings: ATP at Km
T2 construct: purchased SignalChem R02-19BG-05; the other entry of the earlier key: CCDC6 (Q16204, Coiled-coil domain-containing protein 6)
T2 sequence (P07949 with tags, fused parts or gaps): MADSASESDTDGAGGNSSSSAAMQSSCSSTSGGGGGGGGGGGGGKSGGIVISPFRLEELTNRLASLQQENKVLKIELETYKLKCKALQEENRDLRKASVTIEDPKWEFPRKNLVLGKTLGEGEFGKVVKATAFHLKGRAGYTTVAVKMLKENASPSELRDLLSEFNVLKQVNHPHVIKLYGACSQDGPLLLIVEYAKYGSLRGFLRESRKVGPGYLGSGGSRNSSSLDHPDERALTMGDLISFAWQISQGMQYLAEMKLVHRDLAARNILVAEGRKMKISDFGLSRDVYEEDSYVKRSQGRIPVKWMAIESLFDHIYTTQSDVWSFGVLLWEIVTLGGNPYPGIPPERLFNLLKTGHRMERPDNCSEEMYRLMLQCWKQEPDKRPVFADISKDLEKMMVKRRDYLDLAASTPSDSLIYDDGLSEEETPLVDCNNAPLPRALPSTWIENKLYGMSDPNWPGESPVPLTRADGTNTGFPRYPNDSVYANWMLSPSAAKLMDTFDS
Text: as §1, §2

RET V804L = molecular target: T3, RET V804L (Homo sapiens, UniProt P07949, V804L); test: HTRF kinase activity inhibition, RET V804L; type: biochemical; settings: ATP at Km
T3 construct: purchased Thermofisher PV4397
Text: as §1, §2

RET M918T = molecular target: T4, RET M918T (Homo sapiens, UniProt P07949, M918T); test: HTRF kinase activity inhibition, RET M918T; type: biochemical; settings: ATP at Km
T4 construct: purchased Carna 08-508
Text: as §1, §2

RET V804M = molecular target: T5, RET V804M (Homo sapiens, UniProt P07949, V804M); test: HTRF kinase activity inhibition, RET V804M; type: biochemical; settings: ATP at Km
T5 construct: purchased Thermofisher PV6223
Text: as §1, §2

[1] = Hygroscopicity (DVS) of crystal form I; type: physicochemical
Method: The crystal form I of the free base of the compound was placed in the saturated water vapor at the […] relative humidity to make the compound reach dynamic equilibrium with the water vapor, and the percentage of hygroscopic weight gain of the compound was calculated after equilibrium.

[2] = Solid stability of crystal form I (HPLC impurities); type: physicochemical; settings: 14 days
Method: To investigate the physical and chemical stability of the compound under light 5000 lx, high temperature 60° C., high humidity 92.5% RH, high temperature and high humidity 50° C./75% RH conditions to provide a basis for the storage of the compound.
[…] 5000 lx, high temperature 60° C., high humidity 92.5% RH, high temperature and high humidity 50° C./75% RH, and the content was determined by HPLC with external standard method, and the changes of the related substances were calculated by the area normalization method for chromatographic peak.

[3] = Thermodynamic solubility in different media at 37° C.; type: physicochemical; settings: thermodynamic from solid, read-out: Solubility of crystal form I
Method: To compare the solubility of the crystal form I of the free base in pH 1-8 USP buffer, artificial simulated gastric fluid (FaSSGF), fasting artificial simulated intestinal fluid (FaSSIF), non-fasting artificial simulated intestinal fluid (FeSSIF) and pure water and other medium to provide a basis for the assessment of druggablitity.
About 1 mg of the crystal form I of the free base was mixed and suspended in different mediums for 4 hours.

[4] = High temperature and high humidity/50° C./75% RH

T3 sequence (P07949 29-1114 V804L): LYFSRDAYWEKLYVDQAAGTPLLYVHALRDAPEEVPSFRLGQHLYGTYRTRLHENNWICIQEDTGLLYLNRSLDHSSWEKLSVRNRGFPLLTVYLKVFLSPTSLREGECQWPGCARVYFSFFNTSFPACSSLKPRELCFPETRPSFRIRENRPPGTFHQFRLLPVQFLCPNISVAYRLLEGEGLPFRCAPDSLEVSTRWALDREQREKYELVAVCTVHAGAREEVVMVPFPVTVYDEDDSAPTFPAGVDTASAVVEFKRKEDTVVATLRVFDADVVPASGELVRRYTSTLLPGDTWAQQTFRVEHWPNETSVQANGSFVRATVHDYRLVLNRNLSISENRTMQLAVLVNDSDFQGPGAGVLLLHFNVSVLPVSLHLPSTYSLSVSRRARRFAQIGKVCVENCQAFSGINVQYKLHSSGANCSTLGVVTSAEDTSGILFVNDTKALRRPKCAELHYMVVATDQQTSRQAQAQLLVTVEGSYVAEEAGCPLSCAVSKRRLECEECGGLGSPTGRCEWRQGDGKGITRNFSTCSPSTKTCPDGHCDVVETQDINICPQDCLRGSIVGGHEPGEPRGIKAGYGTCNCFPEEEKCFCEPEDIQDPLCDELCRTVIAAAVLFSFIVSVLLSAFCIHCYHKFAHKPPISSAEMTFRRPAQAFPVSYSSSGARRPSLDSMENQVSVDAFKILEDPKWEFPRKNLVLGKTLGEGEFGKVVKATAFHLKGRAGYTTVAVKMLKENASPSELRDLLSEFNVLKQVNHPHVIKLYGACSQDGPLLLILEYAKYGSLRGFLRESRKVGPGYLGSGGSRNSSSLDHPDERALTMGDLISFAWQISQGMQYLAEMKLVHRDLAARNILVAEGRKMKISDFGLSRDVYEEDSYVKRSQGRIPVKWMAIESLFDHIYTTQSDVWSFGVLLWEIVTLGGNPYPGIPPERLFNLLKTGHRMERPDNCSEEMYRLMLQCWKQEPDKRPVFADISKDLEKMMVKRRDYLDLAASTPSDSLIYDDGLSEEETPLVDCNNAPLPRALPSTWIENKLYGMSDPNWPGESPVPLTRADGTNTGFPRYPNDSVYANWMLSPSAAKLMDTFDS
T4 sequence (P07949 29-1114 M918T): as the sequence (P07949 29-1114 V804L) above, with L776V, M890T counted along it
T5 sequence (P07949 29-1114 V804M): as the sequence (P07949 29-1114 V804L) above, with L776M counted along it

IC50 (KIF5B-RET): 0.5 nM | IC50 (CCDC6-RET): 1.72 nM | IC50 (RET V804L): 0.28 nM | IC50 (RET M918T): 0.37 nM | IC50 (RET V804M): 1.1 nM
SMILES: CC1(NC(=O)c2ncccc2Cl)CCN(c2ccc(-c3cc(C#CC4(O)COC4)cn4ncc(C#N)c34)cn2)CC1 [Embodiment 97, 3-Chloro-N-(1-(5-(3-cyano-6-((3-hydroxyoxetan-3-yl)ethynyl)pyrazolo[1,5-a]pyridin-4-yl)pyridin-2-yl)-4-methylpiperidin-4-yl)picolinamide]

hygroscopic weight gain ([1]; RH80%, 25° C.): about 0.43% | hygroscopicity ([1]; RH80%, 25° C.): slightly hygroscopicity | XRPD pattern / crystal form after moisture absorption and desorption ([1]; two cycles at 0-95% RH): the crystal form has not transformed | Increase of total impurities % ([2]; High humidity/92.5% RH): <0.02% | Maximum increase of single impurity % ([2]; High humidity/92.5% RH): <0.02% | Increase of total impurities % [2, 4]: <0.02% | Maximum increase of single impurity % [2, 4]: 0.11% | Increase of total impurities % ([2]; High temperature/60° C.): <0.02% | Maximum increase of single impurity % ([2]; High temperature/60° C.): 0.06% | Increase of total impurities % ([2]; Light/5000 lx): <0.02% | Maximum increase of single impurity % ([2]; Light/5000 lx): 0.18% | solubility at 4 h ([3]; FaSSGF (artificial simulated gastric fluid), fassgf or other biorelevant, FaSSGF, 37° C.): > 2000 µg/mL | solubility at 4 h ([3]; FaSSIF (fasting artificial simulated intestinal fluid), FaSSIF, 37° C.): 1 µg/mL (≈ 1.87 µM) | solubility at 4 h ([3]; FeSSIF (non-fasting artificial simulated intestinal fluid), FeSSIF, 37° C.): 90 µg/mL (≈ 168 µM) | solubility at 4 h ([3]; USP buffer pH 1, simulated gastric fluid, pH 1, 37° C.): > 2000 µg/mL | solubility at 4 h ([3]; USP buffer pH 2, simulated gastric fluid, pH 2, 37° C.): > 2000 µg/mL | solubility at 4 h ([3]; USP buffer pH 3, aqueous buffer, pH 3, 37° C.): 710 µg/mL (≈ 1330 µM) | solubility at 4 h ([3]; USP buffer pH 4, aqueous buffer, pH 4, 37° C.): 370 µg/mL (≈ 691 µM) | solubility at 4 h ([3]; USP buffer pH 5, aqueous buffer, pH 5, 37° C.): 20 µg/mL (≈ 37.3 µM) | solubility at 4 h ([3]; USP buffer pH 6, aqueous buffer, pH 6, 37° C.): 1 µg/mL (≈ 1.87 µM)
SMILES: C#C[C@@](C)(O)COc1cc(-c2ccc(N3CC4CC(C3)N4Cc3ccc(OC)nc3)nc2)c2c(C#N)cnn2c1 [crystal form I, 6-(((R)-2-hydroxy-2-methylbut-3-yn-1-yl)oxy)-4-(6-(6-((6-methoxypyridin-3-yl)methyl)-3,6-diazabicyclo[3.1.1]heptan-3-yl)pyridin-3-yl)pyrazolo[1,5-a]pyridine-3-carbonitrile]
